Results published in patent US20050146723A1, “Method for measuring surface plasmon resonance” (FUJI PHOTO FILM CO., LTD., priority 2003, published 2005).

Test system: trypsin
Assay: Evaluation of leupeptin-binding ability on trypsin-immobilized chip by surface plasmon resonance
Conditions: 10 min after initiation of replacement
Method: The solution in the above-describe dextran measurement chip was removed therefrom. Thereafter, 70 μl of a mixed solution consisting of 200 mM EDC (N-ethyl-N′-(3-dimethylaminopropyl)carbodiimide hydrochloride) and 50 mM NHS (N-hydroxysuccinimide) was added to the measurement chip, and it was then left for 10 minutes. The mixed solution was removed from the measurement chip, and the chip was then washed with 100 μl of water 3 times, and then with 100 μl of buffer 1 (100 mM HEPES (N-2-hydroxyethylpiperazin-N′-2-ethanesulfonic acid), 150 mM NaCl, 10 mM CaCl2) 3 times. The chip containing 100 μl of buffer 1 was installed in the surface plasmon resonance measurement device of the present invention. The inside of the chip was replaced with a trypsin solution (produced by dissolving trypsin in buffer 1 to a concentration of 1 mg/ml), and it was then left for 30 minutes, so as to immobilize trypsin. Thereafter, the inside of the chip was replaced with a 1 M ethanolamine solution, and it was then left for 10 minutes. Thereafter, the inside of the chip was washed with 100 μl of buffer 1 ten times. The amount of a change in resonance signals due to immobilization of trypsin was 2,000 RU.
With regard to the trypsin-immobilized chip of the present invention, the dielectric block was capped with silicon rubber, so as to produce a cell with an internal volume of 15 μl. In the case of such a block cell, the volume of the cell is determined with a space surrounded by the measurement chip and the cap. Two holes each having a diameter of 1 mm were formed through the silicon rubber used as a cap, and a Teflon tube having an inside diameter of 0.5 mm and an outside diameter of 1 mm was passed through each of these holes, so as to produce a flow channel. Likewise, a cap and a flow channel were produced for a reference chip. Thereafter, the two chips were connected in series, so as to produce a flow channel system. Each of the two chips in this flow channel system was installed in the surface plasmon resonance measurement device of the present invention.
The inside of the flow channel system was filled with buffer 2 (10 mM HEPES, 150 mM NaCl). Defining the state before the exchange of the liquid as a standard, a change in signals was measured at intervals of 0.5 seconds. The inside of the flow channel system was replaced with a leupeptin solution produced by dissolving leupeptin in buffer 2 to a concentration of 1 μg/ml) by each method described in Table 1. The level of noise generated on the reference chip side at 2 to 10 minutes after initiation of the replacement, and changes in signals on the trypsin-immobilized chip side and on the reference chip side at 10 minutes after initiation of the replacement, are shown in Table 1. In order to obtain binding detection data with high reliability, it is preferable that the width of noise level (the difference between the maximum and the minimum in a change in signals) be within 10 RU, and that the base line fluctuation, that is, the change in signals on the reference chip side be within 10 RU. More preferably, the above values are both within 5 RU.
The inside of the flow channel system was filled with buffer 2 (10 mM HBPES, 150 mM NaCl). Defining the state before the exchange of the liquid as a standard, a change in signals was measured at intervals of 0.5 seconds. The inside of the flow channel system was replaced with a leupeptin solution (produced by dissolving leupeptin in buffer 2 to a concentration of 1 μg ml) by each method described in Table 2. The level of noise generated on the reference chip side at 2 to 10 minutes after initiation of the replacement, and changes in signals on the trypsin-immobilized chip side and on the reference chip side at 10 minutes after initiation of the replacement, are shown in Table 2. […]

SMILES: CC(=O)N[C@@H](CC(C)C)C(=O)N[C@@H](CC(C)C)C(=O)N[C@H](C=O)CCCNC(=N)N [leupeptin]
- Signal change Immobilized chip (Table 1 method No. 1: leupeptin 1 μg/ml, flow 4 ml/min, exchange 0.125 min, termination 9.875 min, Ve/Vs 16.7): 19 RU
- Signal change Immobilized chip (Table 1 method No. 2: leupeptin 1 μg/ml, flow 4 ml/min, exchange 0.25 min, termination 9.75 min, Ve/Vs 33.3): 21 RU
- Signal change Immobilized chip (Table 1 method No. 3: leupeptin 1 μg/ml, flow 4 ml/min, exchange 1 min, termination 9 min, Ve/Vs 133.3): 20 RU
- Signal change Immobilized chip (Table 1 method No. 4: leupeptin 1 μg/ml, flow 4 ml/min, exchange 1.5 min, termination 8.5 min, Ve/Vs 200.0): 21 RU
- Signal change Immobilized chip (Table 1 method No. 5 (comparative): leupeptin 1 μg/ml, flow 4 ml/min, exchange 10 min, termination 0 min, Ve/Vs 1333.3): 12 RU
- Signal change Immobilized chip (Table 1 method No. 6 (comparative): leupeptin 1 μg/ml, flow 2 ml/min, exchange 10 min, termination 0 min, Ve/Vs 666.7): 25 RU
- Signal change Immobilized chip (Table 1 method No. 7 (comparative): leupeptin 1 μg/ml, flow 1 ml/min, exchange 10 min, termination 0 min, Ve/Vs 333.3): 18 RU
- Signal change Immobilized chip (Table 1 method No. 8 (comparative): leupeptin 1 μg/ml, flow 0.5 ml/min, exchange 10 min, termination 0 min, Ve/Vs 166.7): 26 RU
- Signal change Immobilized chip (Table 2 method No. 1: leupeptin 1 μg ml, flow 4 ml/min, exchange 0.125 min, termination 9.875 min, Ve/Vs 16.7): 19 RU
- Signal change Immobilized chip (Table 2 method No. 2: leupeptin 1 μg ml, flow 4 ml/min, exchange 0.25 min, termination 9.75 min, Ve/Vs 33.3): 21 RU
- Signal change Immobilized chip (Table 2 method No. 3 (comparative): leupeptin 1 μg ml, flow 4 ml/min, exchange 10 min, termination 0 min, Ve/Vs 1333.3): 12 RU
- Signal change Immobilized chip (Table 2 method No. 4 (comparative): leupeptin 1 μg ml, flow 2 ml/min, exchange 10 min, termination 0 min, Ve/Vs 666.7): 25 RU
- Signal change Immobilized chip (Table 2 method No. 5 (comparative): leupeptin 1 μg ml, flow 1 ml/min, exchange 10 min, termination 0 min, Ve/Vs 333.3): 18 RU
- Signal change Immobilized chip (Table 2 method No. 6 (comparative): leupeptin 1 μg ml, flow 0.5 ml/min, exchange 10 min, termination 0 min, Ve/Vs 166.7): 26 RU
- Signal change Immobilized chip (Table 2 method No. 7: leupeptin 1 μg ml, flow 0.2 ml/min, exchange 10 min, termination 0 min, Ve/Vs 66.7): 22 RU
- Signal change Immobilized chip (Table 2 method No. 8: leupeptin 1 μg ml, flow 0.1 ml/min, exchange 10 min, termination 0 min, Ve/Vs 33.3): 20 RU
